GI50 data for 27 compounds are collected here from patent publication US20200190062A1, “HETEROCYCLIC COMPOUND AND PHARMACEUTICAL COMPOSITION COMPRISING SAME” (BEYONDBIO INC., priority 2015, published 2020).

Assay in all cases: Inhibition of cancer cell proliferation (MTT)
Holding throughout (assay type): cell-based, human

The subject of one assay is A549. The method, then: (§1) A test was conducted to confirm whether the compounds obtained in the above Examples can inhibit proliferation of human colon carcinoma cell line HCT116, glioblastoma cell lines U-87MG and T98G, neuroblastoma cell lines SH-SYSY and SK-N-SH, and lung cancer cell lines A549 and NCI-H23.
(§2) HCT116, U-87MG, SH-SYSY, SK-N-SH and A549 cells were culured in DMEM medium containing 10% FBS. T98G cells were cultured in MEM medium containing 10% FBS and NCI-H23 cells were cultured in […] medium containing 10% FBS. In order to analyze an inhibition of proliferation, HCT116 cells were dispensed in 2000 cells/well into 96 well plate, and SH-SYSY, SK-N-SH, U-87MG, T98G, A549, and NCI-H23 cells were dispensed in 3000 cells/well into 96 well plate. And then, the cells were cultured at 5% CO2 and 37° C. for 16 hrs to allow the cells to attach to the wells. The compounds of the above Examples were added to each well at a concentration of 0.004, 0.013, 0.04, 0.12, 0.37, 1.1, 3.3, and 10 uM, and the culture volume was adjusted to 100 ul. A control group was treated with dimethylsulfoxide (DMSO) at the same concentration, 0.08%, as used to treat the test compounds. Afterwards, cells were cultured at 5% CO2 and 37° C. for 72 hrs. And then, 10 ul of the solution of MTT (3-(4,5-dimethylthiazol-2-yl)-2,5-diphenyltetrazolium bromide) dissolved in PBS at 5 mg/ml was added to each well to identify viable cells and the cells were cultured for further 2 hrs. The culture solution was removed, 100 ul of DMSO was added to dissolve the formed formazan and then an absorbance was measured at 535 nm. Based on the absorbance of the control cells not treated with the compounds, the amounts of the viable cells according to the concentration of the compounds were calculated. GI50 (growth inhibition 50) value which is the concentration of the compound to inhibit cancer cell proliferation by 50% was calculated using Graphpad Prism 5.0 program.

For the next assay, the system named is HCT116. The method, then: as §1, §2
The test system of a further assay is U-87MG. The method, then: as §1, §2
The next assay relates to T98G. The method, then:
as §1, §2

The test system of a further assay is NCI-H23. The method, then:
as §1, §2

Structures can show the parent of a compound that is named as a salt.

For `CCCN1CCCC(c2nc(N)nc(-c3nc(-c4ccnc(N)c4F)ccc3O)c2C)C1` (stereo not shown) [Example 47, 2′-amino-6-(2-amino-5-methyl-6-(1-propylpiperidin-3-yl)pyrimidin-4-yl)-3′-fluoro-[2,4′-bipyridin]-5-ol], the concentration for 50% growth inhibition (GI50) (usually the concentration that inhibits growth by half) in the assay with A549 (Homo sapiens, A549, 72 h) came out at 1440 nM; in the assay with HCT116 (Homo sapiens, HCT-116, 72 h), 810 nM; in the assay on U-87MG (Homo sapiens, U-87 MG, 72 h), 1090 nM; in the assay on T98G (Homo sapiens, T98G, 72 h), 1410 nM; in the assay on NCI-H23 (Homo sapiens, NCI-H23, 72 h) it was 2230 nM.
For the compound `CCN1CCC(c2nc(N)nc(-c3nc(-c4ccnc(N)c4F)ccc3O)c2C)CC1` [Example 94, 2′-amino-6-(2-amino-6-(1-ethylpiperidin-4-yl)-5-methylpyrimidin-4-yl)-3′-fluoro-[2,4′-bipyridin]-5-ol 4hydrochloride], the GI50 is 230 nM with A549 (72 hrs); 150 nM in the assay on HCT116 (72 hrs); 320 nM in the assay with U-87MG (72 hrs); 480 nM with T98G (72 hrs); 520 nM with NCI-H23 (72 hrs).
On the same counts, the results for `CCCN1CCCC(c2nc(N)nc(-c3nc(-c4ccnc(N)c4F)ccc3O)c2C)C1` (stereo not shown) [Example 98, 2′-amino-6-(2-amino-5-methyl-6-(1-propylpiperidin-3-yl)pyrimidin-4-yl)-3′-fluoro-[2,4′-bipyridin]-5-ol 4hydrochloride] are 1300 nM, 890 nM, 970 nM, 1750 nM and 2060 nM.
For `CCCN1CCCC(c2cc(-c3nc(-c4ccnc(N)c4F)ccc3O)nc(N)n2)C1` (stereo not shown) [Example 91, 2′-amino-6-(2-amino-6-(1-propylpiperidin-3-yl)pyrimidin-4-yl)-3′-fluoro-[2,4′-bipyridin]-5-ol 4hydrochloride], in that order: 30 nM, 20 nM, 30 nM, 70 nM and 50 nM.
For `Cc1c(-c2nc(-c3ccnc(N)c3F)ccc2O)nc(N)nc1C1CCN(C)CC1` [Example 42, 2′-amino-6-(2-amino-5-methyl-6-(1-methylpiperidin-4-yl)pyrimidin-4-yl)-3′-fluoro-[2,4′-bipyridin]-5-ol], in that order: 380 nM, 180 nM, 270 nM, 400 nM and 890 nM.
As to `CCCc1cnc(N)nc1-c1nc(-c2ccnc(N)c2F)ccc1O` [Example 103, 2′-amino-6-(2-amino-5-propylpyrimidin-4-yl)-3′-fluoro-[2,4′-bipyridin]-5-ol 3hydrochloride], the concentration for 50% growth inhibition (GI50) in the assay with A549 (72 hrs) turned out to be 10 nM; in the assay on HCT116 (72 hrs) it was 10 nM; in the assay with U-87MG (72 hrs), 10 nM; with T98G (72 hrs), 10 nM; in the assay on NCI-H23 (72 hrs), 20 nM.
In the case of `CN1CCCC(c2cc(-c3nc(-c4ccnc(N)c4F)ccc3O)nc(N)n2)C1` (stereo not shown) [Example 38, 2′-amino-6-(2-amino-6-(1-methylpiperidin-3-yl)pyrimidin-4-yl)-3′-fluoro-[2,4′-bipyridin]-5-ol], the GI50 in the assay with A549 (Homo sapiens, A549, 72 h) turned out to be 5 nM; in the assay on HCT116 (Homo sapiens, HCT-116, 72 h) it was 2 nM; with U-87MG (Homo sapiens, U-87 MG, 72 h), 4 nM; in the assay on T98G (Homo sapiens, T98G, 72 h), 20 nM; with NCI-H23 (Homo sapiens, NCI-H23, 72 h), 20 nM.
Take `Cc1c(-c2nc(-c3ccnc(N)c3F)ccc2O)nc(N)nc1C1CCCN(C(C)C)C1` (stereo not shown) [Example 48, 2′-amino-6-(2-amino-6-(1-isopropylpiperidin-3-yl)-5-methylpyrimidin-4-yl)-3′-fluoro-[2,4′-bipyridin]-5-ol]: the concentration for 50% growth inhibition (GI50) with HCT116 (Homo sapiens, HCT-116, 72 h) is 2910 nM; in the assay on U-87MG (Homo sapiens, U-87 MG, 72 h), 3820 nM.
`Cc1cc(-c2nc(-c3ccncc3)ccc2O)nc(N)n1` [Example 25, 6-(2-amino-6-methylpyrimidin-4-yl)-[2,4′-bipyridin]-5-ol] showed a GI50 in the assay on HCT116 (Homo sapiens, HCT-116, 72 h) of 290 nM.
For `Cc1cc(-c2nc(-c3ccc(O)cc3)ccc2O)nc(N)n1` [Example 27, 2-(2-amino-6-methylpyrimidin-4-yl)-6-(4-hydroxyphenyl)pyridin-3-ol], in the assay on HCT116 (Homo sapiens, HCT-116, 72 h), the concentration for 50% growth inhibition (GI50) was 290 nM.
Compound `Nc1nccc(-c2ccc(O)c(-c3ccnc(N)n3)n2)n1` [Example 63, 2,6-bis(2-aminopyrimidin-4-yl)pyridin-3-ol malonate] displayed a GI50 in the assay on HCT116 (72 hrs) of 190 nM.
In the case of `Cc1cc(-c2nc(-c3ccc(O)cc3F)ccc2O)nc(N)n1` [Example 29, 2-(2-amino-6-methylpyrimidin-4-yl)-6-(2-fluoro-4-hydroxyphenyl)pyridin-3-ol], in the assay on HCT116 (Homo sapiens, HCT-116, 72 h), the GI50 was found to be 1260 nM.
For the compound `CC(C)c1cc(-c2nc(-c3ccnc(N)c3F)ccc2O)nc(N)n1` [Example 81, 2′-amino-6-(2-amino-6-isopropylpyrimidin-4-yl)-3′-fluoro-[2,4′-bipyridin]-5-ol 3hydrochloride], the GI50 with A549 (72 hrs) was 140 nM; in the assay with HCT116 (72 hrs), 20 nM; in the assay on NCI-H23 (72 hrs) it was 70 nM.
Take `CN1CCCC(c2cc(-c3nc(-c4ccnc(N)c4F)ccc3O)nc(N)n2)C1` (stereo not shown) [Example 89, 2′-amino-6-(2-amino-6-(1-methylpiperidin-3-yl)pyrimidin-4-yl)-3′-fluoro-[2,4′-bipyridin]-5-ol 4hydrochloride]: the 50% growth inhibitory concentration (GI50) in the assay with A549 (72 hrs) came to 10 nM; in the assay with T98G (72 hrs) it was 20 nM; in the assay on NCI-H23 (72 hrs), 20 nM.
In turn, `Nc1nccc(-c2ccc(O)c(-c3ccnc(N)n3)n2)n1` [Example 64, 2,6-bis(2-aminopyrimidin-4-yl)pyridin-3-ol sulfate] yielded a 50% growth inhibitory concentration (GI50) in the assay with HCT116 (72 hrs) of 190 nM.
With `Cc1c(-c2nc(-c3ccnc(N)c3F)ccc2O)nc(N)nc1C1CCCN(C(C)C)C1` (stereo not shown) [Example 99, 2′-amino-6-(2-amino-6-(1-isopropylpiperidin-3-yl)-5-methylpyrimidin-4-yl)-3′-fluoro-[2,4′-bipyridin]-5-ol 4hydrochloride], the 50% growth inhibitory concentration (GI50) was 2030 nM in the assay on HCT116 (72 hrs); 2570 nM with U-87MG (72 hrs); 3790 nM in the assay with T98G (Homo sapiens, T98G, 72 h).
The compound `Nc1cccc(-c2nc(-c3ccnc(N)n3)ccc2O)n1` [Example 7, 6′-amino-6-(2-aminopyrimidin-4-yl)-[2,2′-bipyridin]-3-ol] came in with a GI50 in the assay on HCT116 (Homo sapiens, HCT-116, 72 h) of 670 nM.
Consider `Cc1cc(-c2nc(-c3cccc(N)c3)ccc2O)nc(N)n1` [Example 30, 2-(2-amino-6-methylpyrimidin-4-yl)-6-(3-aminophenyl)pyridin-3-ol], for which halving of growth in the assay with HCT116 (Homo sapiens, HCT-116, 72 h) (GI50) required 720 nM.
As to `Nc1nccc(-c2ccc(O)c(-c3ccnc(N)n3)n2)n1` [Example 62, 2,6-bis(2-aminopyrimidin-4-yl)pyridin-3-ol oxalate], the concentration for 50% growth inhibition (GI50) in the assay with HCT116 (72 hrs, oxalate) was found to be 190 nM.
As to `CN1CCC(c2cc(-c3nc(-c4ccnc(N)c4F)ccc3O)nc(N)n2)CC1` [Example 79, 2′-amino-6-(2-amino-6-(1-methylpiperidin-4-yl)pyrimidin-4-yl)-3′-fluoro-[2,4′-bipyridin]-5-ol oxalate], the 50% growth inhibitory concentration (GI50) in the assay with HCT116 (72 hrs, oxalate) is 40 nM.
`Nc1cc(-c2ncc(O)c(-c3ccnc(N)n3)n2)ccn1` [Example 5, 2′-amino-2-(2-aminopyridin-4-yl)-[4,4′-bipyrimidin]-5-ol] came in with a GI50 in the assay with HCT116 (Homo sapiens, HCT-116, 72 h) of 3590 nM.
In the assay on HCT116 (72 hrs), `CN1CCC(c2cc(-c3nc(-c4ccnc(N)c4F)ccc3O)nc(N)n2)CC1` [Example 80, 2′-amino-6-(2-amino-6-(1-methylpiperidin-4-yl)pyrimidin-4-yl)-3′-fluoro-[2,4′-bipyridin]-5-ol malonate] came in with a GI50 of 140 nM.
`Nc1nccc(-c2nc(-c3cccnc3)ccc2O)n1` [Example 11, 6-(2-aminopyrimidin-4-yl)-[2,3′-bipyridin]-5-ol] registered a GI50 in the assay with HCT116 (Homo sapiens, HCT-116, 72 h) of 6080 nM.
`CN1CCC(c2cc(-c3nc(-c4ccnc(N)c4F)ccc3O)nc(N)n2)CC1` [Example 78, 2′-amino-6-(2-amino-6-(1-methylpiperidin-4-yl)pyrimidin-4-yl)-3′-fluoro-[2,4′-bipyridin]-5-ol 2acetate] registered a 50% growth inhibitory concentration (GI50) in the assay with HCT116 (72 hrs) of 40 nM.
With `Nc1nccc(-c2cnc(O)c(-c3ccnc(N)n3)c2)n1` [Example 6, 3,5-bis(2-aminopyrimidin-4-yl)pyridin-2-ol], in the assay on HCT116 (Homo sapiens, HCT-116, 72 h), the GI50 amounted to 2300 nM.
Still for that read-out and setting: the result for `Cc1cc(-c2nc(-c3ccncc3F)ccc2O)nc(N)n1` [Example 26, 6-(2-amino-6-methylpyrimidin-4-yl)-3′-fluoro-[2,4′-bipyridin]-5-ol] reads 1180 nM.
In the case of `CC(C)c1cc(-c2nc(-c3ccnc(N)c3F)ccc2O)nc(N)n1` [Example 82, 2′-amino-6-(2-amino-6-isopropylpyrimidin-4-yl)-3′-fluoro-[2,4′-bipyridin]-5-ol 2acetate], the 50% growth inhibitory concentration (GI50) in the assay with A549 (72 hrs) was determined as 170 nM; in the assay on HCT116 (72 hrs), 20 nM; in the assay on NCI-H23 (72 hrs), 90 nM.
